# Measured values: ChEMBL document CHEMBL1201862, “PubChem BioAssay data set” (2004)
# Active and inactive are the calls of the source. Unless noted, the rule behind the calls is not given here.
# Legend:
# Jurkat = assay: SAR Analysis of small molecule inhibitors of both B-cell and T-cell specific antigen receptor-induced NF-kB activation in a Jurkat cell line using a luminescence assay. [Related pubchem assays (depositor defined):AID435003, AID435022, AID465, AID489029]; type: functional, cell-based; settings: Homo sapiens
# HEK293 [1] = assay: cytotoxicity in HEK293T NF-kB-Luc cells, SAR follow-up, cytotoxicity control for NF-kB activator project, cell-based, resazurin fluorescence (AID 493251); type: functional; settings: Homo sapiens
# HEK293 [2] = assay: SAR Analysis of small molecule inhibitors of both B-cell and T-cell specific antigen receptor-induced NF-kB activation in a HEK-293T cell line using a luminescence assay. [Related pubchem assays (depositor defined):AID435003, AID435022, AID465, AID489019, AID489029]; type: functional, cell-based; settings: Homo sapiens
# [3] = target: 26S proteasome non-ATPase regulatory subunit 14 (Homo sapiens, UniProt O00487); assay: inhibition of proteasome subunit RPN11 – biochemical, fluorescence polarization, uHTS hits, confirmation (AID 602368); type: functional
# Chain of 26S proteasome non-ATPase regulatory subunit 14 (O00487 whole entry): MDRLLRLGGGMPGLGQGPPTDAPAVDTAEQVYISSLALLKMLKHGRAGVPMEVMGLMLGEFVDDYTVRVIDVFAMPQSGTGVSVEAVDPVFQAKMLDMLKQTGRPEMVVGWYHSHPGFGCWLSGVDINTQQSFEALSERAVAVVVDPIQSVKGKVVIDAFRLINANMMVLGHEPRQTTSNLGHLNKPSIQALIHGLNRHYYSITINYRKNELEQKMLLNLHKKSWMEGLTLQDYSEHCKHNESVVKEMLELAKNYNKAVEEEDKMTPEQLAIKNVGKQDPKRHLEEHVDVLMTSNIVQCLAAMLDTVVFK
# [4] = target: 72 kDa type IV collagenase (Homo sapiens, UniProt P08253); assay: Dose Response validation of uHTS RPN11 inhibitor hits using a MMP-2 Fluorescence assay.; type: functional
# Chain of 72 kDa type IV collagenase (P08253 whole entry): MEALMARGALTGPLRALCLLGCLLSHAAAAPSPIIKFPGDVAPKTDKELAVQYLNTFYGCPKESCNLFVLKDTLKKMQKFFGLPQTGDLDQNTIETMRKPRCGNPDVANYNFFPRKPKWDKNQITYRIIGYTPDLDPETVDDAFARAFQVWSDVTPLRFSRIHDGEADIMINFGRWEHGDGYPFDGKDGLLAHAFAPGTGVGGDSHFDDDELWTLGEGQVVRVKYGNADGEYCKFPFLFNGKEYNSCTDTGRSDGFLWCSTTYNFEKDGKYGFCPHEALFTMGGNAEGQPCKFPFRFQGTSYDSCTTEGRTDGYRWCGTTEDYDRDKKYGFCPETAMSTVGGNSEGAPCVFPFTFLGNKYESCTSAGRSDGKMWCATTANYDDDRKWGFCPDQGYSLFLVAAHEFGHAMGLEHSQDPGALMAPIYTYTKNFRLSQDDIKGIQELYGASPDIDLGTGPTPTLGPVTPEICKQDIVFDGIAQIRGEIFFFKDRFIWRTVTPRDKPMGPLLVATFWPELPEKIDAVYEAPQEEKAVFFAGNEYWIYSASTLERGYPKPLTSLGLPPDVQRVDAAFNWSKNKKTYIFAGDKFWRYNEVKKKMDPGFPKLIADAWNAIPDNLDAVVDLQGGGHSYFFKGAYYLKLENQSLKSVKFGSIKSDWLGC
# Prothrombin = Prothrombin (Bos taurus, UniProt P00735); assay: thrombin inhibition, dose response, biochemical, fluorescence polarization, uHTS hits (AID 602369); type: functional
# [5] = nonselective inhibitors of cellular cAMP signaling, dose response, counter-screen for MC4R biased antagonist project, cell-based, TR-FRET cAMP detection (AID 602305); type: functional;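 also: U2OS cells stimulated with forskolin near its EC80 as the cAMP inducer; potency is for inhibition of forskolin-stimulated cAMP signaling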
# Melanocortin receptor 4 = Melanocortin receptor 4 (Homo sapiens, UniProt P32245); assay: MC4R antagonist potency on cAMP, dose response, cell-based, TR-FRET, biased antagonists (AID 602298); type: functional;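 also: antagonist potency against agonist-stimulated cAMP production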
# Chain of Melanocortin receptor 4 (P32245 whole entry): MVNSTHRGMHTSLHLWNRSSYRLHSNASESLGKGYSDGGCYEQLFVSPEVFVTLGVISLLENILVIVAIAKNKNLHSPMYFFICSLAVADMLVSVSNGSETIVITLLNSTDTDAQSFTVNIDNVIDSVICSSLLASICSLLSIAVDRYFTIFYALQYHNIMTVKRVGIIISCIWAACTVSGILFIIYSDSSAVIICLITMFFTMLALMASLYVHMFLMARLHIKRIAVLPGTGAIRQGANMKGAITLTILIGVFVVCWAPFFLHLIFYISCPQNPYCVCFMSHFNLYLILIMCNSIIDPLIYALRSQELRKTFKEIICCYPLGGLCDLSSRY
# [6] = target: T1, V-type proton ATPase subunit c' (Saccharomyces cerevisiae S288c, UniProt P32842); assay: Dose Response of Small Molecules that Regulate V-ATPase Proton Transport in Yeast using pHLuorin, Powder Set1.; type: functional; settings: read-out: EC50_MICROM
# T1 sequence (P32842 whole entry): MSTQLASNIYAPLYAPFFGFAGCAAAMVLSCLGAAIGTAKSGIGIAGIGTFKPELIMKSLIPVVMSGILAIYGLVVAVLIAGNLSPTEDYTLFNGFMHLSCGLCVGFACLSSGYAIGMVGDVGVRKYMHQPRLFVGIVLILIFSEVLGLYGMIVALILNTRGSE
# [7] = target: T1, V-type proton ATPase subunit c'; assay: Dose Response of Small Molecules that Regulate V-ATPase Proton Transport in Yeast using pHLuorin, Cherry Pick 2.; type: functional; settings: read-out: EC50_MICROM
# [8] = inhibitors of intracellular T. cruzi replication, confirmation, NIH3T3 host cells, beta-gal luminescence (AID 2044); type: functional, cell-based;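 also: intracellular parasites grown in NIH/3T3 mouse fibroblasts as host cells; luminescent beta-galactosidase reporter signal from transgenic T. cruzi replicating inside host cells; inhibitors lower the luminescence signal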
# [9] = cytotoxicity toward NIH3T3 fibroblasts, dose response, counter-screen, cell-based, ATP luminescence, mouse fibroblasts (AID 2010); type: functional;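 also: cells exposed to compound for about 90 hours before reading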
# [10] = target: T1, V-type proton ATPase subunit c'; assay: Dose Response with BCECF Assay for V-ATPase inhibitors that increase vacuolar pH, Powder Set 1.; type: functional; settings: read-out: EC50_MICROM
compound,measurement,setting,value
COc1cc(NS(=O)(=O)c2ccccc2)c2ncccc2c1,IC50,Jurkat,1.32 µM (active)
same,IC50,HEK293 [1],59.5 µM (inactive)
same,IC50,HEK293 [2],70.7 µM (inactive)
O=[N+]([O-])c1ccc(N/N=C/c2sc(N3CCOCC3)nc2-c2ccccc2)c(S(=O)(=O)Nc2ccccc2Cl)c1,IC50,[3],0.658 µM (active)
same,IC50,[4],> 100 µM (inactive)
same,IC50,Prothrombin,0.564 µM (active)
CC(=O)Oc1ccc2nc(-c3ccc(Br)o3)oc(=O)c2c1,IC50,[5],> 64.6 µM (inactive)
same,IC50,Melanocortin receptor 4,> 64.6 µM (inactive)
O=C(c1ccc([N+](=O)[O-])o1)N1CCN(c2nc3c(F)cc(F)cc3s2)CC1,EC50,[6],1.93 µM (active)
same,EC50,[7],8.9 µM (active)
same,EC50,[8],0.466 µM (active)
same,EC50,[9],22.4 µM (active)
same,EC50,[10],0.39 µM (active)
